Experimental data taken from patent EP4352072B1, “SYNTHESIS OF A NOVEL GLUCOSE-CONJUGATED METHOTREXATE AND ITS APPLICATION FOR THE TREATMENT AND PREVENTION OF NEOPLASMS” (Uniwersytet Medyczny Im. Piastów Slaskich We Wroclawiu, priority 2021, dated 2022).
Like-named read-outs stand apart in the source and are kept apart here.

Key:
[1] = administered intravenously, cited from earlier work
[2] = tested on: A427 lung cancer tumor cells; experiment: MS analysis of intracellular accumulation, A427; format: cell-based; conditions: 10 µM, 2 hours incubation
Description: (§1) Cells were seeded in a 6-well plate at 2.5 x 10^5 cells/well and 1 mL/well. When the cells reached 80% confluence, the culture medium was decanted and 1 mL per well of fresh medium to the control wells or 1 mL per well of the test medium with methotrexate at a concentration of 10 µM or a derivative of methotrexate at a concentration of 10 µM, respectively, was added. The plate was wrapped in foil and incubated for 2 hours in an incubator. After this time, the medium was decanted, and each well was washed with 2x1 mL of PBS at room temperature. Then, the plate was placed on ice and 500 µL of a 3:1 mixture of methanol and ultrapure water at -20 °C were applied to each well. The mixture was pipetted several times in each well and collected in a test tube. Then, the procedure was repeated and the prepared samples (each with a volume of 1 mL) were placed in a lowtemperature freezer at -80 °C. The next day, the samples were concentrated in a vacuum concentrator until the samples were completely dry. Prior to analysis, the solvent for MS analysis (Xevo G2 Q-TOF MS) was added to the sample. In figure 7 it can be seen that in case of MTX the surface area of MCF7 tumor cells grown with MTX is about 308 units, and when using a compound according to the invention (identified as 77_1 in Figure 7) it is 525, i.e. about 1.7 times less than in the case of a conjugate. […]

[3] = tested on: WI38 (healthy fibroblasts); experiment: MTT cytotoxicity test, WI38; format: cell-based; conditions: Homo sapiens, WI-38, incubation 72 hours, read-out: IC50 values (µM) for individual cell lines WI38 (healthy fibroblasts)
Description: (§2) Cells were seeded in a 96-well plate at 5-10 x 10^3 cells per well. After 24 hours, the culture medium was decanted and 100 µL of fresh medium was added to the control wells, while the medium with test compounds dissolved in DMSO was added to the test wells. The plates were wrapped in foil and placed in an incubator. After 72 hours of incubation, the medium was decanted and 100 µL of a solution of yellow soluble 3-(4,5-dimethyl-2-thiazolyl)-2,5-diphenyl-2H-tetrazolium bromide (MTT) at a concentration of 0.5-1 mg/mL was added. After 4 hours of incubation, the MTT solution was decanted and 50 µL/well of DMSO was added. After 3 hours, the optical density of the dissolved formazan was analyzed colorimetrically in a BioTek plate reader. […] Since living cells reduce MTT to formazan, the optical density (OD) is highest in the control (C) wells which accounted for 100% of cell viability. Viablity in wells incubated with compound (COMP) was calculated using the formula: X = 100% × OD COMP/OD C [formula] The results reported are the mean value of triplicate cytotoxicity analysis. Cell viability studies using the MTT assay on cell lines of numerous cancers, including breast cancer, colorectal cancer, lung cancer, skin cancer, and bone sarcoma have shown that Glu-MTX is cytotoxic in vitro. […]

[4] = tested on: MCF-7 breast cancer tumor cells; experiment: MS analysis of intracellular accumulation, MCF-7; format: cell-based; conditions: human, 2 h, 10 µM
Description: as §1

MG-63 (bone sarcoma) = experiment: MTT cytotoxicity test, MG-63; format: cell-based; conditions: Homo sapiens, incubation 72 hours, read-out: IC50 values (µM) for individual cell lines MG-63 (bone sarcoma)
Description: as §2

[5] = cited from earlier work
MCF-7 (breast) = experiment: MTT cytotoxicity test, MCF-7; format: cell-based; conditions: Homo sapiens, MCF7, incubation 72 hours, read-out: IC50 values (µM) for individual cell lines MCF-7 (breast)
Description: as §2

[6] = male, BALB/ccmdb, mouse, in vivo, iv
Description: The pharmacokinetic profile of the glucose-methotrexate derivative according to the invention (GMTX; chemical formula: C42H58N16O15) was examined in relation to the profile of the classical form of this drug (MTX) after a single intravenous administration into the tail vein. The solutions administered to the animals were prepared on the day of administration.
GMTX was administered to mice intravenously via the tail vein, in a single dose, in the form of solutions (with concentrations ensuring that the animals are dosed appropriately) prepared in 5% DMSO and saline in the 1:20 ratio, in a volume not exceeding 0.2 cm^3/mouse. […]
Mice were administered intravenously (i.v.) GMTX and MTX and blood was collected (to obtain plasma) at 4 time points after injection (1 h, 2 h, 4 h and 8 h), as well as in the so-called time 0 (blood sampling from animals that received neither MTX nor GMTX). […] Another 16 males were administered GMTX at a dose of 400 mg/kg body weight, constituting ½ the MTD of this compound (determined in our study with the code T425/001/2020), and the remaining 8 subjects were not administered either classic MTX nor its glycoconjugate (GMTX). […]
The results of MTX and GMTX concentrations in the plasma of mice were statistically analyzed using the Statistica 13 computer program. The results were expressed as the mean concentration (± standard deviation - SD) at individual time points. […]

DLD-1 (large intestine) = experiment: MTT cytotoxicity test, DLD-1; format: cell-based; conditions: Homo sapiens, incubation 72 hours, read-out: IC50 values (µM) for individual cell lines DLD-1 (large intestine)
Description: as §2

CN(Cc1cnc2nc(N)nc(N)c2n1)c1ccc(C(=O)N[C@@H](CCC(=O)O)C(=O)O)cc1 [MTX, Methotrexate]
MTD ([1]; mice of the BALB/c strain, Moura et al. 2011): 94 mg/kg b.w. | LD50 ([1]; mice): 65 mg/kg b.w. | surface area of MTX, times smaller compared to that of the conjugate [2]: 1.7 times | IC50 [3]: 16.9 ± 1.94 µM | surface area (MS analysis) [4]: about 308 units | surface area of MTX, times less than in the case of a conjugate [4]: about 1.7 times | IC50 (MG-63 (bone sarcoma)): 61 ± 0.76 µM | bioavailability ([5]; in high doses): 10-20% | bioavailability ([5]; in low doses): almost complete | plasma half-life ([5]; in vivo): 5 to 8 h | IC50 (MCF-7 (breast)): 9.61 ± 0.12 µM | eliminated from the systemic circulation (time) [6]: ≤ 4 h | IC50 (DLD-1 (large intestine)): 6.85 ± 0.21 µM
